Experimental data published in the NIST ThermoML archive (doi:10.1021/je7001013).

What was measured:
[1] = refractive index (Na D-line) (dimensionless); xn = mol fraction of the nth substance listed; settings: 101 kPa, Liquid
[2] = xn = mol fraction of the nth substance listed; settings: Maximal bubble pressure

C[S+](C)[O-] [dimethyl sulfoxide] + O
Settings | refractive index, [1] | surface tension liquid-gas, [2] [mN/m]
298.15 K, x1 = 0.0121 | 1.34 | 71
298.15 K, x1 = 0.0202 | 1.344 | 69.7
298.15 K, x1 = 0.1044 | – | 61.2
298.15 K, x1 = 0.1467 | 1.396 | –
298.15 K, x1 = 0.1979 | – | 56.7
298.15 K, x1 = 0.2455 | 1.4215 | –
298.15 K, x1 = 0.2507 | – | 55.4
298.15 K, x1 = 0.2959 | 1.4305 | –
298.15 K, x1 = 0.2999 | – | 53.3
298.15 K, x1 = 0.3187 | – | 53.1
298.15 K, x1 = 0.3213 | 1.4345 | –
298.15 K, x1 = 0.3536 | – | 52.6
298.15 K, x1 = 0.3713 | 1.4415 | –
298.15 K, x1 = 0.3802 | – | 52
298.15 K, x1 = 0.3967 | 1.4445 | –
298.15 K, x1 = 0.4191 | – | 51
298.15 K, x1 = 0.4301 | 1.4475 | –
298.15 K, x1 = 0.4523 | – | 50.3
298.15 K, x1 = 0.501 | – | 48.3
298.15 K, x1 = 0.59 | – | 46
298.15 K, x1 = 0.5964 | 1.461 | –
298.15 K, x1 = 0.7027 | – | 44
298.15 K, x1 = 0.7685 | 1.47 | –
298.15 K, x1 = 0.8088 | – | 42.6
298.15 K, x1 = 0.8945 | – | 42
303.15 K, x1 = 0.0121 | 1.339 | 70.1
303.15 K, x1 = 0.0202 | 1.3435 | 68.7
303.15 K, x1 = 0.1044 | – | 60.6
303.15 K, x1 = 0.1467 | 1.4005 | –
303.15 K, x1 = 0.1979 | – | 55.8
303.15 K, x1 = 0.2455 | 1.42 | –
303.15 K, x1 = 0.2507 | – | 54.5
303.15 K, x1 = 0.2959 | 1.4295 | –
303.15 K, x1 = 0.2999 | – | 52.4
303.15 K, x1 = 0.3187 | – | 52.3
303.15 K, x1 = 0.3213 | 1.4335 | –
303.15 K, x1 = 0.3536 | – | 51.7
303.15 K, x1 = 0.3713 | 1.4405 | –
303.15 K, x1 = 0.3802 | – | 51.2
303.15 K, x1 = 0.3967 | 1.443 | –
303.15 K, x1 = 0.4191 | – | 50
303.15 K, x1 = 0.4301 | 1.4455 | –
303.15 K, x1 = 0.4523 | – | 49.9
303.15 K, x1 = 0.501 | – | 47.4
303.15 K, x1 = 0.59 | – | 45.2
303.15 K, x1 = 0.5964 | 1.459 | –
303.15 K, x1 = 0.7027 | – | 43.4
303.15 K, x1 = 0.7685 | 1.468 | –
303.15 K, x1 = 0.8088 | – | 42.1
303.15 K, x1 = 0.8945 | – | 41.4
308.15 K, x1 = 0.0121 | 1.3395 | 69.2
308.15 K, x1 = 0.0202 | 1.343 | 67.9
308.15 K, x1 = 0.1044 | – | 59.8
308.15 K, x1 = 0.1467 | 1.4 | –
308.15 K, x1 = 0.1979 | – | 54.8
308.15 K, x1 = 0.2455 | 1.419 | –
308.15 K, x1 = 0.2507 | – | 53.2
308.15 K, x1 = 0.2959 | 1.428 | –
308.15 K, x1 = 0.2999 | – | 51.5
308.15 K, x1 = 0.3187 | – | 51.4
308.15 K, x1 = 0.3213 | 1.432 | –
308.15 K, x1 = 0.3536 | – | 50.6
308.15 K, x1 = 0.3713 | 1.4395 | –
308.15 K, x1 = 0.3802 | – | 50.3
308.15 K, x1 = 0.3967 | 1.442 | –
308.15 K, x1 = 0.4191 | – | 49.2
308.15 K, x1 = 0.4301 | 1.4445 | –
308.15 K, x1 = 0.4523 | – | 49.1
308.15 K, x1 = 0.501 | – | 46.7
308.15 K, x1 = 0.59 | – | 44.6
308.15 K, x1 = 0.5964 | 1.458 | –
308.15 K, x1 = 0.7027 | – | 42.6
308.15 K, x1 = 0.7685 | 1.466 | –
308.15 K, x1 = 0.8088 | – | 41.5
308.15 K, x1 = 0.8945 | – | 40.9
313.15 K, x1 = 0.0121 | – | 67.6
313.15 K, x1 = 0.0202 | – | 66.9
313.15 K, x1 = 0.1044 | – | 58.7
313.15 K, x1 = 0.1979 | – | 53.9
313.15 K, x1 = 0.2507 | – | 52.3
313.15 K, x1 = 0.2999 | – | 50.6
313.15 K, x1 = 0.3187 | – | 50.4
313.15 K, x1 = 0.3536 | – | 50
313.15 K, x1 = 0.3802 | – | 49.5
313.15 K, x1 = 0.4191 | – | 48.4
313.15 K, x1 = 0.4523 | – | 48.2
313.15 K, x1 = 0.501 | – | 46
313.15 K, x1 = 0.59 | – | 43.8
313.15 K, x1 = 0.7027 | – | 42.1
313.15 K, x1 = 0.8088 | – | 40.9
313.15 K, x1 = 0.8945 | – | 40.3
318.15 K, x1 = 0.0121 | – | 66.4
318.15 K, x1 = 0.0202 | – | 65.8
318.15 K, x1 = 0.1044 | – | 57.9
318.15 K, x1 = 0.1979 | – | 53
318.15 K, x1 = 0.2507 | – | 51.2
318.15 K, x1 = 0.3218 | – | 50.7
318.15 K, x1 = 0.3506 | – | 49.7
318.15 K, x1 = 0.3549 | – | 49.4
318.15 K, x1 = 0.3802 | – | 48.6
318.15 K, x1 = 0.4191 | – | 47.5
318.15 K, x1 = 0.4523 | – | 47.3
318.15 K, x1 = 0.501 | – | 45.1
318.15 K, x1 = 0.59 | – | 43.1
318.15 K, x1 = 0.7027 | – | 41.4
318.15 K, x1 = 0.8088 | – | 40.4
318.15 K, x1 = 0.8945 | – | 39.8
323.15 K, x1 = 0.0121 | – | 65.3
323.15 K, x1 = 0.0202 | – | 64.8
323.15 K, x1 = 0.1044 | – | 57
323.15 K, x1 = 0.1979 | – | 52.2
323.15 K, x1 = 0.2507 | – | 50.3
323.15 K, x1 = 0.3218 | – | 49.9
323.15 K, x1 = 0.3506 | – | 48.7
323.15 K, x1 = 0.3549 | – | 48.4
323.15 K, x1 = 0.3802 | – | 47.7
323.15 K, x1 = 0.4191 | – | 46.7
323.15 K, x1 = 0.4523 | – | 46.3
323.15 K, x1 = 0.501 | – | 44.4
323.15 K, x1 = 0.59 | – | 42.3
323.15 K, x1 = 0.7027 | – | 40.8
323.15 K, x1 = 0.8088 | – | 39.8
323.15 K, x1 = 0.8945 | – | 39.2
328.15 K, x1 = 0.0121 | – | 65.1
328.15 K, x1 = 0.0202 | – | 63.8
328.15 K, x1 = 0.1044 | – | 55.1
328.15 K, x1 = 0.1979 | – | 51.1
328.15 K, x1 = 0.2507 | – | 49.4
328.15 K, x1 = 0.3218 | – | 49
328.15 K, x1 = 0.3506 | – | 47.7
328.15 K, x1 = 0.3549 | – | 47.4
328.15 K, x1 = 0.3802 | – | 46.8
328.15 K, x1 = 0.4191 | – | 45.9
328.15 K, x1 = 0.4523 | – | 45.3
328.15 K, x1 = 0.501 | – | 43.5
328.15 K, x1 = 0.59 | – | 41.7
328.15 K, x1 = 0.7027 | – | 40.2
328.15 K, x1 = 0.8088 | – | 39.2
328.15 K, x1 = 0.8945 | – | 38.7
